The source of these data is patent US9073874B2, “Cyclic N,N′-diarylthioureas and N,N′-diarylureas-androgen receptor antagonists, anticancer agent, method for preparation and use thereof” (priority 2010, dated 2015).

In one assay the target is dopamine transporter (h) (Homo sapiens, UniProt Q01959). Kind of assay: competitive radioligand binding assay, dopamine transporter (h) (antagonist radioligand).
Another assay deals with NK3 (h) (Homo sapiens, UniProt P29371). Nature of the assay: competitive radioligand binding assay, NK3 (h) (antagonist radioligand).
NK3 (h), sequence (P29371 whole entry): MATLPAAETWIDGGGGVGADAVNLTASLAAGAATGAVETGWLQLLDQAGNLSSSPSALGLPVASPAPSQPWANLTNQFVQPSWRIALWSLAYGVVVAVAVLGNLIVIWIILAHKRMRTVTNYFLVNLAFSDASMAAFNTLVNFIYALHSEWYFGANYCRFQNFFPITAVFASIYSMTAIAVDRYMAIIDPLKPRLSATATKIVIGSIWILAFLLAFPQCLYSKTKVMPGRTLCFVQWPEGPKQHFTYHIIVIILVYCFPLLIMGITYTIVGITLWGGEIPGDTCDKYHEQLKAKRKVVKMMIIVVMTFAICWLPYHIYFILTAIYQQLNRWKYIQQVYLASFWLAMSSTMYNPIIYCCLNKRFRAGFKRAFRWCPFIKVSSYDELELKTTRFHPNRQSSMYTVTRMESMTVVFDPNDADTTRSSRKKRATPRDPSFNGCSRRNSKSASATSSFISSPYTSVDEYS
The next assay has as its target ETB (h) (Homo sapiens, UniProt P24530). Nature of the assay: competitive radioligand binding assay, ETB (h) (agonist radioligand).
A further assay deals with V2 (h) (Homo sapiens, UniProt P30518). Kind of assay: competitive radioligand binding assay, V2 (h) (agonist radioligand).
V2 (h), sequence (P30518 whole entry): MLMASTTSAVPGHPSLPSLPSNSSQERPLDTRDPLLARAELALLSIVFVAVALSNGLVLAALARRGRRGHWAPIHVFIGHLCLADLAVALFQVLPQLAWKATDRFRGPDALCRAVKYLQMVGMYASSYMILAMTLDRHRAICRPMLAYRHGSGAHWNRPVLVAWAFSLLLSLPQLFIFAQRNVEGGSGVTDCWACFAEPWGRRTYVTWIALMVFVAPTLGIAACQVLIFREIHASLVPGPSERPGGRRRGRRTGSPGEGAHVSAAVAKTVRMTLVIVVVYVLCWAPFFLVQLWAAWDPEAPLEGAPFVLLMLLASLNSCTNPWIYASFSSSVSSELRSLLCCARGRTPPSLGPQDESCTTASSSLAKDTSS
Another assay deals with B1 (h) (Homo sapiens, UniProt P46663). Nature of the assay: competitive radioligand binding assay, B1 (h) (agonist radioligand).
B1 (h), sequence (P46663 whole entry): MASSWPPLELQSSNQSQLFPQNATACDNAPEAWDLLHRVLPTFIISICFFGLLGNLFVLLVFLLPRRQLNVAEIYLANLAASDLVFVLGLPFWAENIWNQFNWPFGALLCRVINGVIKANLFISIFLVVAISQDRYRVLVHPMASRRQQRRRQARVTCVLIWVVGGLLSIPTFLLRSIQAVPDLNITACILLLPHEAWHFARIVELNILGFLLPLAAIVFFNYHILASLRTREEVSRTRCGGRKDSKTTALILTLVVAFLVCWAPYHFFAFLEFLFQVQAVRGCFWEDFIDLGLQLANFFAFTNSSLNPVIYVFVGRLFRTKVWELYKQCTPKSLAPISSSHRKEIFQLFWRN
For a further assay, the target named is CB1 (h) (Homo sapiens, UniProt P21554). Kind of assay: competitive radioligand binding assay, CB1 (h) (agonist radioligand).
CB1 (h), sequence (P21554 whole entry): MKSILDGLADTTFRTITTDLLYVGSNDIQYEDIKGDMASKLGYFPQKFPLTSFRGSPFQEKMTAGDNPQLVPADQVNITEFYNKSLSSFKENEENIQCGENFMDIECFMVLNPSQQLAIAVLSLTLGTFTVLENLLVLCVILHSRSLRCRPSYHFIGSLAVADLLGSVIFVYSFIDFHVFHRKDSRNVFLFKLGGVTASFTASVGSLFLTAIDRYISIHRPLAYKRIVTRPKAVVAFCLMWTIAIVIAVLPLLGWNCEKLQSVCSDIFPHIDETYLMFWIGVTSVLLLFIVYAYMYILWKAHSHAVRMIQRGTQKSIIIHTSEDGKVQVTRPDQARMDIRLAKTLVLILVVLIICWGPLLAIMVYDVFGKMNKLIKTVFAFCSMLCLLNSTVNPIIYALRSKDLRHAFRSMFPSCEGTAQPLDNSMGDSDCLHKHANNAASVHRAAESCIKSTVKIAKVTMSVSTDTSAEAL
Another assay addresses A3 (h) (Homo sapiens, UniProt P0DMS8). Nature of the assay: competitive radioligand binding assay, A3 (h) (agonist radioligand).
Assay [1] concerns the target T1, rat AR ligand-binding domain (Rattus norvegicus, UniProt P15207).
T1 construct: purchased Invitrogen PV4293
Kind of assay: Competitive-binding assay vs AR ligand Fluormone (PolarScreen Androgen Receptor Competitor Assay, fluorescence polarization). Here is the method:
Binding to rat AR ligand-binding domain was measured in competition with fluorescently labeled AR ligand Fluormone™ using a commercial assay kit and fluorescence polarization as a read-out.
FIG. 3. Competitive-binding assay vs AR ligand Fluormone™ (PolarScreen™ Androgen Receptor Competitor Assay, Invitrogen, cat. #PV4293).
In general terms: Fluorescence polarisation rises when a labelled molecule tumbles more slowly, as on binding a larger partner.

Another assay deals with BLT1 (LTB4) (h) (Homo sapiens, UniProt Q15722). Kind of assay: competitive radioligand binding assay, BLT1 (LTB4) (h) (agonist radioligand).
BLT1 (LTB4) (h), sequence (Q15722 whole entry): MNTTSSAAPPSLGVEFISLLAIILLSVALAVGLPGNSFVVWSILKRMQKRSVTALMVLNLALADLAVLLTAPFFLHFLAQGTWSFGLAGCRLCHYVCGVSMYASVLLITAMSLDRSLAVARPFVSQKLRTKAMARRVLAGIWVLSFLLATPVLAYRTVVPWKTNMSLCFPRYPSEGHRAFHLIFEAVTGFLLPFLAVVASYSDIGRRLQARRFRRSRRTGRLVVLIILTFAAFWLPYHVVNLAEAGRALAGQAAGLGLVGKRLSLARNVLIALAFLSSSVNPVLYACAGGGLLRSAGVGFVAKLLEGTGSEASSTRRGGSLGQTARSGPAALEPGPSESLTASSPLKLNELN
A further assay concerns Cl− channel (GABA-gated). Nature of the assay: competitive radioligand binding assay, Cl− channel (GABA-gated) (antagonist radioligand). The settings on record: 10 μM.
The target of the next assay is AT1 (h) (Homo sapiens, UniProt P30556). Nature of the assay: competitive radioligand binding assay, AT1 (h) (antagonist radioligand).
AT1 (h), sequence (P30556 whole entry): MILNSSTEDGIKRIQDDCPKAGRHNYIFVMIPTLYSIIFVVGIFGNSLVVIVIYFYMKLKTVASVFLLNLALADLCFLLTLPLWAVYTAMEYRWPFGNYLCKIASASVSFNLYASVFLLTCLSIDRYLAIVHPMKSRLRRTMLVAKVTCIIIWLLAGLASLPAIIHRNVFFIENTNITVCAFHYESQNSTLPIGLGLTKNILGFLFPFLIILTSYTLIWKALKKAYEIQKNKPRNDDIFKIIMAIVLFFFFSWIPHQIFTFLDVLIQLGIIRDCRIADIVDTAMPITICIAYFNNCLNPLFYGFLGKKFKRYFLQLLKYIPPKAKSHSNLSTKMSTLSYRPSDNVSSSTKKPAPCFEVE
Assay [2] relates to T2, GABA (non-selective) receptors.
T2 construct: other: 10 μM; GABA (non-selective) (agonist radioligand); activity towards GABA (non-selective) receptors (in words)
In kind it is binding.

The next assay relates to AMPA. Kind of assay: competitive radioligand binding assay, AMPA (agonist radioligand). Conditions: 10 μM.
For another assay, the system named is I2. Nature of the assay: competitive radioligand binding assay, I2 (antagonist radioligand). Conditions: 10 μM.
The next assay has as its target T3, androgen receptors (Homo sapiens, UniProt P10275, T878A).
T3 construct: host or cells: LNCaP
T3 sequence (P10275 1-920 T878A): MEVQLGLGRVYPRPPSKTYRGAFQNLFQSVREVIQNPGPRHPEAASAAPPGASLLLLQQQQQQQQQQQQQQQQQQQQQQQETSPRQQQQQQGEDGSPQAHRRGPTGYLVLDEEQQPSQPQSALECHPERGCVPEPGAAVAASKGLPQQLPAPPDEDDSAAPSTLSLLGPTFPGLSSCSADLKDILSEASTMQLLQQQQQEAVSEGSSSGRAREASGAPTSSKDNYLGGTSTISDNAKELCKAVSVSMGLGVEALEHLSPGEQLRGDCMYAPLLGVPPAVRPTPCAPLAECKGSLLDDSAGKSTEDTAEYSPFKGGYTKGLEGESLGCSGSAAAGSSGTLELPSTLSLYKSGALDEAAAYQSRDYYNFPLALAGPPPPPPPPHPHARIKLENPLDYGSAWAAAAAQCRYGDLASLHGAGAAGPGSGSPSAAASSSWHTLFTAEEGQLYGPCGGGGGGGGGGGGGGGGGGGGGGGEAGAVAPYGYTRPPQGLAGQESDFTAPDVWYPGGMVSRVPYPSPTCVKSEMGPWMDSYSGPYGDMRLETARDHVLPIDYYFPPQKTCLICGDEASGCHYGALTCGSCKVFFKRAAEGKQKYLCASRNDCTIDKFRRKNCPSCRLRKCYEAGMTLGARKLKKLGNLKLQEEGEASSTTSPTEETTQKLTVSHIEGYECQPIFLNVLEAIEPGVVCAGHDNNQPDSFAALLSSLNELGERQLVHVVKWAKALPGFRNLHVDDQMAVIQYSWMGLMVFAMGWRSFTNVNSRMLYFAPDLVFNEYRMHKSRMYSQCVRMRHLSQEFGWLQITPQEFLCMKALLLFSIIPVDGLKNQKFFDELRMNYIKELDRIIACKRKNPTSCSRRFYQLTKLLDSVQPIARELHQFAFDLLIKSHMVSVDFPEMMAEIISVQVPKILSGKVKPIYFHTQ
Kind of assay: cell-based. In kind it is cell-based. Here is the method: The expression of PSA was measured in the culture medium 24 hours thereafter (FIG. 1). […] The LnCAP cells were cultured for a further 5 days and the number of viable cells was then calculated.
FIG. 1. Inhibition of DHT-stimulated PSA expression in LnCAP cells.
These cells are sensitive towards 5-a-dihydrotestosterone (DHT) and in the presence thereof produce cancer markers (PSA). […] Before the experiment, the cells were washed and suspended in the same medium, in which, however, a serum treated with charcoal for removal of hormone traces was used instead of calf serum. The cells (10 000 in total) were embedded into the wells of 96-well plates at 100 μl per well and left for 4 days in an incubator at 37° C. […] The cells were incubated for a further 5 days under the same conditions. Then, samples of the supracellular medium were taken and analyzed for PSA. The test was carried out according to the protocol recommended by the manufacturer of the kit for PSA measurement (Alpha Diagnostic International, USA). After wetting the wells containing PSA antibodies attached to their bottoms, 25 μl of test compounds and 100 μl of PSA antibodies pre-conjugated to horseradish peroxidase were added successively to each well. Following a 30-minute incubation at room temperature, the content of each well was removed, the wells were washed several times, and 100 μl of a peroxidase chromogenic substrate was then added to each well. […] Based on data about the dependence of DHT-related reduction of PSA synthesis on the concentration of test compounds, dose-response curves were plotted to determine IC50 values. Said values were used for calculating apparent inhibition constants (Ki) for compounds of general formula I according to Cheng-Prusoff equation. [Cheng, Y., Prusoff, W. H. “Relationship between the inhibition constant (Ki) and the concentration of inhibitor which causes 50 percent inhibition (IC50) of an enzymatic reaction”. Biochem Pharmacol.

The next assay relates to P2X. Kind of assay: competitive radioligand binding assay, P2X (agonist radioligand). Conditions: 10 μM.
Another assay addresses D3 (h) (Homo sapiens, UniProt P35462). Kind of assay: competitive radioligand binding assay, D3 (h) (antagonist radioligand).
A further assay deals with AR (h). Kind of assay: competitive radioligand binding assay, AR (h) (agonist radioligand). Conditions: 10 μM. More on the design: species or system human.

T1 sequence (P15207 651-882 limits assumed): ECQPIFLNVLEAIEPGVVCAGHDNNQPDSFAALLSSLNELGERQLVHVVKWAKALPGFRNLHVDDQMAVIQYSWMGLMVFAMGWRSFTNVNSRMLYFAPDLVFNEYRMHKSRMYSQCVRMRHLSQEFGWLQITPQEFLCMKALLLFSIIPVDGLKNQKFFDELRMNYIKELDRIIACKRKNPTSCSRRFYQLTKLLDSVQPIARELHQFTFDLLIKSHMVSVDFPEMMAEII
dopamine transporter (h), sequence (Q01959 whole entry): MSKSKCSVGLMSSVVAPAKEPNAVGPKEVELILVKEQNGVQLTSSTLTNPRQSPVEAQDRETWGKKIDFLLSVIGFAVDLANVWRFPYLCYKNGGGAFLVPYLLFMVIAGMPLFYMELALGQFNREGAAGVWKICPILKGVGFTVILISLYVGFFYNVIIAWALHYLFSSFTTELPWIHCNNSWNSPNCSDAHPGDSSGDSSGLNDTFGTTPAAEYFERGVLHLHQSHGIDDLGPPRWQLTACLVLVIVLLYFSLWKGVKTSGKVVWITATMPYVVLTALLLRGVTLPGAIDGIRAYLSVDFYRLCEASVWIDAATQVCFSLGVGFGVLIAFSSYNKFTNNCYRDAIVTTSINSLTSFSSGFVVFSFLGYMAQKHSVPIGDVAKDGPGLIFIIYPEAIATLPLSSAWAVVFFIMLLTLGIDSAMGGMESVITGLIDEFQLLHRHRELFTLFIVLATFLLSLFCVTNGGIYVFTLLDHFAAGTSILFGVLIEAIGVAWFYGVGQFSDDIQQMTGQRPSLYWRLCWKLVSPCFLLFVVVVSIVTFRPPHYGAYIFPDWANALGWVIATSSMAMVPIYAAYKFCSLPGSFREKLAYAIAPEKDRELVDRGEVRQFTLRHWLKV
A3 (h), sequence (P0DMS8 whole entry, the tested form may be a part): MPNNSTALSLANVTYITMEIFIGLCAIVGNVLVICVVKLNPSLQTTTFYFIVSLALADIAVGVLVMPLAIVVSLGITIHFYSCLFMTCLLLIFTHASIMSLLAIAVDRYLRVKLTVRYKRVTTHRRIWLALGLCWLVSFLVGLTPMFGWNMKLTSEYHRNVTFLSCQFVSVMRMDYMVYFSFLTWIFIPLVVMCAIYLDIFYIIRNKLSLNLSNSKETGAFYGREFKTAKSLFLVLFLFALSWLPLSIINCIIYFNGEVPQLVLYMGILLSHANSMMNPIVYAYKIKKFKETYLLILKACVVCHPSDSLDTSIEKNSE
ETB (h), sequence (P24530 27-442): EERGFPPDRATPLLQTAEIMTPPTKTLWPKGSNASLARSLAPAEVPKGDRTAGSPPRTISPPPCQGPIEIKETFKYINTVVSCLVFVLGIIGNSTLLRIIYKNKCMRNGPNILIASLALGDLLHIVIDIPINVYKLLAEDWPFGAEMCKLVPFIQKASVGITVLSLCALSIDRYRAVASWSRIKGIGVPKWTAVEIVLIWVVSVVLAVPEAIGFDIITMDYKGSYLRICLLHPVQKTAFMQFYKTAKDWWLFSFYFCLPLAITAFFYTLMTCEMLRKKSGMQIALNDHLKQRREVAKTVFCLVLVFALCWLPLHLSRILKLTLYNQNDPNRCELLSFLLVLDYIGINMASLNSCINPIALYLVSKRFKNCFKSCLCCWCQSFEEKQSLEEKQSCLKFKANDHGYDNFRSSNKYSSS
D3 (h), sequence (P35462 whole entry): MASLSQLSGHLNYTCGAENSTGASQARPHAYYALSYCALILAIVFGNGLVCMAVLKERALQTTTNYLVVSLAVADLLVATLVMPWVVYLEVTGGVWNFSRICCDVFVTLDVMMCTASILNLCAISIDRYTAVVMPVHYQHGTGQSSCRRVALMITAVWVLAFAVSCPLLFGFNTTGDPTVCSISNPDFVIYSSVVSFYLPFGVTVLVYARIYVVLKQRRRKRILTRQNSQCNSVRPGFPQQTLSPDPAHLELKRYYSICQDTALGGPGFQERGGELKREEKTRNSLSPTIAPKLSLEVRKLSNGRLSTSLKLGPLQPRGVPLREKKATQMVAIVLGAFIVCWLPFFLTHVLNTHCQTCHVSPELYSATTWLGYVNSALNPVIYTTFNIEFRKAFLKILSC

In general, inhibition refers to the relative decrease from the control value, in per cent. As a reminder, the IC50 is the concentration that gives 50% inhibition. For orientation: % Inhibition means the change of the read-out against control, counted positive when it falls. The Ki is the dissociation constant of the complex between target and ligand, obtained from inhibition or displacement. `CNC(=O)c1ccc(N2C(=S)N(c3ccc(C#N)c(C(F)(F)F)c3)C(=O)[C@]23CCOC3)cc1F` [(R)-1, 4-[(R)-3-(4-cyano-3-trifluoromethyl-phenyl)-4-oxo-2-thioxo-7-oxa-1,3-diaza-spiro[4.4]non-1-yl]-2-fluoro-N-methyl-benzamide]: the inhibition at 10 µM on dopamine transporter (h) was -0.3%; at NK3 (h) it was -4.5%; on ETB (h), -1.7%; on V2 (h), 1.5%; on B1 (h) it was 0.5%; on CB1 (h), -4.5%. Besides, the inhibition at 10 µM on A3 (h) is -4.9%; at BLT1 (LTB4) (h), 15.9%; at AT1 (h), 0.5%; at D3 (h) it was -4.8%. Besides, the IC50 in [1] (rat AR ligand-binding domain, fluorescence polarization (FIG. 3)) stood at 7.9 µM. Also, in assay [1] (versus Ia), the “fold more efficient binding than Ia” value is reported as “around 2.1 fold”. The “% Inhibition” value with Cl− channel (GABA-gated) is reported as 42.4%; in assay [2] (10 μM, GABA (non-selective) (agonist radioligand)), 7.1%; in the assay on AMPA, −23.0%; with I2, 10.1%; with P2X, 28.0%; with AR (h) it was 96.3%. The “activity towards GABA (non-selective) receptors (in words)” value in [2] (Table 1, Target 24) is “practically inactive”. Besides, on androgen receptors, the “AR antagonistic activity (in words)” value is reported as “even greater AR antagonistic activity”. In addition, the “fold more efficient than III in inhibiting DHT-induced PSA expression” value on androgen receptors is on record as “around 1.9 fold”. Also, the “fold more efficient than Ia in inhibiting DHT-induced PSA expression” value at androgen receptors was “around 1.5 fold”. In addition, the “fold more potent than (S)-stereoisomer (S)-1” value on androgen receptors was “more than 10 fold”. The Ki at androgen receptors (read-out: Ki, inhibition of DHT-induced PSA expression) stood at 0.02 µM.
